System: MV-4-11 cells
Experiment: Gene expression microarray analysis (Affymetrix PrimeView) and GSEA
Assay type: cell-based, human
Design: RFU PODN (11730768_x_at) / Fold change /veh PODN (11730768_x_at) / RFU LINC00158 (11744669_a_at) / Fold change /veh LINC00158 (11744669_a_at) / RFU DUSP10 (11751237_a_at) / Fold change /veh DUSP10 (11751237_a_at) / RFU ID3 (11757404_x_at) / Fold change /veh ID3 (11757404_x_at) / RFU PLEKHG5 (11737974_s_at) / Fold change /veh PLEKHG5 (11737974_s_at) / RFU LRRC4B (11730491_at) / Fold change /veh LRRC4B (11730491_at) / RFU GIMAP4 (11747438_a_at) / Fold change /veh GIMAP4 (11747438_a_at) / RFU KRT8 (11758183_x_at) / Fold change /veh KRT8 (11758183_x_at) / RFU CNN1 (11734310_a_at) / Fold change /veh CNN1 (11734310_a_at) / RFU VPS37D (11726825_at) / Fold change /veh VPS37D (11726825_at) / RFU C10orf10 (11716522_x_at) / Fold change /veh C10orf10 (11716522_x_at) / RFU KIR2DL2 /// KIR2DL4 /// KIR2DL5A /// KIR2DL5B /// KIR2DS1 /// KIR2DS2 /// KIR2DS3 /// KIR2DS4 /// KIR3DL3 /// KIR3DL3 /// KIR3DS1 (11738374_at) / Fold change /veh KIR2DL2 /// KIR2DL4 /// KIR2DL5A /// KIR2DL5B /// KIR2DS1 /// KIR2DS2 /// KIR2DS3 /// KIR2DS4 /// KIR3DL3 /// KIR3DL3 /// KIR3DS1 (11738374_at) / RFU C1QL1 (11718748_at) / Fold change /veh C1QL1 (11718748_at) / RFU TMPRSS4 (11747572_a_at) / Fold change /veh TMPRSS4 (11747572_a_at) / RFU HAMP (11756126_x_at) / Fold change /veh HAMP (11756126_x_at) / RFU RNFT2 (11725882_a_at) / Fold change /veh RNFT2 (11725882_a_at) / RFU NR4A2 (11747474_a_at) / Fold change /veh NR4A2 (11747474_a_at) / RFU ABCC12 (11746883_a_at) / Fold change /veh ABCC12 (11746883_a_at) / RFU TMEM136 (11760407_x_at) / Fold change /veh TMEM136 (11760407_x_at) / RFU CLDN22 /// WWC2 (11732394_at) / Fold change /veh CLDN22 /// WWC2 (11732394_at) / RFU HLA-DPB1 (11760878_x_at) / Fold change /veh HLA-DPB1 (11760878_x_at) / RFU SPINT1 (11716480_a_at) / Fold change /veh SPINT1 (11716480_a_at) / RFU GAP43 (11754022_s_at) / Fold change /veh GAP43 (11754022_s_at) / RFU A4GNT (11735810_at) / Fold change /veh A4GNT (11735810_at) / RFU PRB3 (11715151_x_at) / Fold change /veh PRB3 (11715151_x_at) / RFU TUBB4B (11761932_at) / Fold change /veh TUBB4B (11761932_at) / RFU CAPN14 (11732068_a_at) / Fold change /veh CAPN14 (11732068_a_at) / RFU TMCC2 (11721928_a_at) / Fold change /veh TMCC2 (11721928_a_at) / RFU IRGQ (11745062_a_at) / Fold change /veh IRGQ (11745062_a_at) / RFU FAM174B (11720279_a_at) / Fold change /veh FAM174B (11720279_a_at) / RFU TMPRSS4 (11748680_a_at) / Fold change /veh TMPRSS4 (11748680_a_at) / RFU FAM212B (11763350_a_at) / Fold change /veh FAM212B (11763350_a_at) / RFU PLEKHG5 (11743358_a_at) / Fold change /veh PLEKHG5 (11743358_a_at) / RFU ZSCAN30 (11745921_a_at) / Fold change /veh ZSCAN30 (11745921_a_at) / RFU CMKLR1 (11741424_a_at) / Fold change /veh CMKLR1 (11741424_a_at) / RFU LOC101060620 /// MAPK8IP1 (11723275_at) / Fold change /veh LOC101060620 /// MAPK8IP1 (11723275_at) / RFU SPTSSB (11747773_x_at) / Fold change /veh SPTSSB (11747773_x_at) / RFU PRSS12 (11739890_at) / Fold change /veh PRSS12 (11739890_at) / RFU BIN1 (11741810_x_at) / Fold change /veh BIN1 (11741810_x_at) / RFU WNT11 (11732464_a_at) / Fold change /veh WNT11 (11732464_a_at) / RFU C10orf10 (11716521_a_at) / Fold change /veh C10orf10 (11716521_a_at) / RFU C5orf56 (11738089_at) / Fold change /veh C5orf56 (11738089_at) / RFU CYB561 (11721691_x_at) / Fold change /veh CYB561 (11721691_x_at) / RFU ANKRD19P (11752326_a_at) / Fold change /veh ANKRD19P (11752326_a_at) / RFU OR2T12 /// OR2T33 /// OR2T8 (11738714_s_at) / Fold change /veh OR2T12 /// OR2T33 /// OR2T8 (11738714_s_at) / RFU VCAN (11748164_a_at) / Fold change /veh VCAN (11748164_a_at) / RFU JSRP1 (11732532_at) / Fold change /veh JSRP1 (11732532_at) / RFU KRTAP10-11 (11738290_x_at) / Fold change /veh KRTAP10-11 (11738290_x_at) / RFU MYO3A (11730013_a_at) / Fold change /veh MYO3A (11730013_a_at) / RFU EBF3 (11725865_a_at) / Fold change /veh EBF3 (11725865_a_at) / RFU CAMK2N1 (11719241_x_at) / Fold change /veh CAMK2N1 (11719241_x_at) / RFU C5orf56 (11738088_a_at) / Fold change /veh C5orf56 (11738088_a_at) / RFU OLFML3 (11715873_a_at) / Fold change /veh OLFML3 (11715873_a_at) / RFU LOC100653217 /// NTM (11731650_a_at) / Fold change /veh LOC100653217 /// NTM (11731650_a_at) / RFU MAPK11 (11762145_a_at) / Fold change /veh MAPK11 (11762145_a_at) / RFU FIZ1 (11724087_x_at) / Fold change /veh FIZ1 (11724087_x_at) / RFU OASL (11726364_x_at) / Fold change /veh OASL (11726364_x_at) / RFU SOX15 (11748057_x_at) / Fold change /veh SOX15 (11748057_x_at) / RFU CD79A (11719716_a_at) / Fold change /veh CD79A (11719716_a_at) / RFU HIST1H1D (11736915_at) / Fold change /veh HIST1H1D (11736915_at) / RFU CASKIN2 (11723855_a_at) / Fold change /veh CASKIN2 (11723855_a_at) / RFU LOC730098 (11760151_x_at) / Fold change /veh LOC730098 (11760151_x_at) / RFU OR4N2 (11742367_at) / Fold change /veh OR4N2 (11742367_at) / RFU PRRT2 (11749266_a_at) / Fold change /veh PRRT2 (11749266_a_at) / RFU SNX32 (11753110_a_at) / Fold change /veh SNX32 (11753110_a_at) / RFU CDHR5 (11726645_a_at) / Fold change /veh CDHR5 (11726645_a_at) / RFU RCAN1 (11760418_a_at) / Fold change /veh RCAN1 (11760418_a_at) / RFU FAM167A (11723789_a_at) / Fold change /veh FAM167A (11723789_a_at) / RFU FAM26E (11764081_at) / Fold change /veh FAM26E (11764081_at) / RFU ISYNA1 (11749810_s_at) / Fold change /veh ISYNA1 (11749810_s_at) / RFU ACY1 (11761880_at) / Fold change /veh ACY1 (11761880_at) / RFU 11764098_at / Fold change /veh 11764098_at / RFU SAMD14 (11745864_x_at) / Fold change /veh SAMD14 (11745864_x_at) / RFU NPB (11741838_a_at) / Fold change /veh NPB (11741838_a_at) / RFU TMPRSS6 (11731388_a_at) / Fold change /veh TMPRSS6 (11731388_a_at) / RFU KRTAP10-2 (11738614_at) / Fold change /veh KRTAP10-2 (11738614_at) / RFU ARHGAP8 /// PRR5-ARHGAP8 (11727945_x_at) / Fold change /veh ARHGAP8 /// PRR5-ARHGAP8 (11727945_x_at) / RFU KRTAP5-7 /// NADSYN1 (11734609_at) / Fold change /veh KRTAP5-7 /// NADSYN1 (11734609_at) / RFU RASL12 (11751679_a_at) / Fold change /veh RASL12 (11751679_a_at) / RFU CDKN2B (11736163_a_at) / Fold change /veh CDKN2B (11736163_a_at) / RFU PRF1 (11729649_at) / Fold change /veh PRF1 (11729649_at) / RFU, ZNF638 /// ZNF638-IT1 / Fold change vs veh, ZNF638 /// ZNF638-IT1 / RFU, PANK3 / Fold change vs veh, PANK3 / RFU, SH3YL1 / Fold change vs veh, SH3YL1 / RFU, ZEB2 / Fold change vs veh, ZEB2 / RFU, NRIP1 / Fold change vs veh, NRIP1 / RFU, PTTG1IP / Fold change vs veh, PTTG1IP / RFU, CAPN2 / Fold change vs veh, CAPN2 / RFU, MED14 / Fold change vs veh, MED14 / RFU, SNORA58 / Fold change vs veh, SNORA58 / RFU, C1orf63 / Fold change vs veh, C1orf63 / RFU, LRRFIP1 / Fold change vs veh, LRRFIP1 / RFU, NDUFAF7 / Fold change vs veh, NDUFAF7 / RFU, SLC12A2 / Fold change vs veh, SLC12A2 / RFU, IBTK / Fold change vs veh, IBTK / RFU, ESF1 / Fold change vs veh, ESF1 / Fold change vs veh, TMEM50B / RFU, TAOK1 / Fold change vs veh, TAOK1 / RFU, ACBD3 / Fold change vs veh, ACBD3 / RFU, TMA16 / Fold change vs veh, TMA16 / RFU, RWDD3 / Fold change vs veh, RWDD3 / RFU, BCAT1 / Fold change vs veh, BCAT1 / RFU, EDEM3 / Fold change vs veh, EDEM3 / RFU, TMEM33 / Fold change vs veh, TMEM33 / RFU, WDR75 / Fold change vs veh, WDR75 / RFU, AHCTF1 / Fold change vs veh, AHCTF1 / RFU, TFRC / Fold change vs veh, TFRC / RFU, ZDHHC17 / Fold change vs veh, ZDHHC17 / RFU, NOM1 / Fold change vs veh, NOM1 / RFU, ARL8B / Fold change vs veh, ARL8B / RFU, ZBTB11 / Fold change vs veh, ZBTB11 / RFU, TAMM41 / Fold change vs veh, TAMM41 / RFU, KIAA1704 /// LOC100996395 / Fold change vs veh, KIAA1704 /// LOC100996395 / RFU, ING1 / Fold change vs veh, ING1 / RFU, TRMT61B / Fold change vs veh, TRMT61B / RFU, FUBP3 / Fold change vs veh, FUBP3 / RFU, TP53 / Fold change vs veh, TP53 / RFU, TNKS2 / Fold change vs veh, TNKS2 / RFU, ZFP14 / Fold change vs veh, ZFP14 / RFU, ACTR2 / Fold change vs veh, ACTR2 / RFU, PPP3R1 / Fold change vs veh, PPP3R1 / RFU, PIK3R1 / Fold change vs veh, PIK3R1 / RFU, HNRNPA1 / Fold change vs veh, HNRNPA1 / RFU, RNF170 / Fold change vs veh, RNF170 / RFU, ZNF28 / Fold change vs veh, ZNF28 / RFU, RNGTT / Fold change vs veh, RNGTT / RFU, OGT / Fold change vs veh, OGT / RFU, BRD1 / Fold change vs veh, BRD1 / RFU, MARS / Fold change vs veh, MARS / RFU, ZNF655 / Fold change vs veh, ZNF655 / RFU, FAHD1 / Fold change vs veh, FAHD1 / RFU, BDP1 / Fold change vs veh, BDP1 / RFU, LRRCC1 / Fold change vs veh, LRRCC1 / RFU, ARID1A / Fold change vs veh, ARID1A / RFU, ZNF146 / Fold change vs veh, ZNF146 / RFU, ZNF330 / Fold change vs veh, ZNF330 / RFU, GPN3 / Fold change vs veh, GPN3 / RFU, C9orf123 / Fold change vs veh, C9orf123 / RFU, N4BP2L2 / Fold change vs veh, N4BP2L2 / RFU, ARFIP1 / Fold change vs veh, ARFIP1 / RFU, FAM179B / Fold change vs veh, FAM179B / RFU, BCL10 / Fold change vs veh, BCL10 / RFU, UHRF1BP1L / Fold change vs veh, UHRF1BP1L / RFU, BET1 / Fold change vs veh, BET1 / RFU, CNOT2 / Fold change vs veh, CNOT2 / RFU, ZNF268 / Fold change vs veh, ZNF268 / Fold change vs veh, ZNF507 / RFU, DGCR2 / Fold change vs veh, DGCR2 / RFU, WDSUB1 / Fold change vs veh, WDSUB1 / Fold change vs veh, HSP90B1 /// MIR3652 / RFU, ADSS / Fold change vs veh, ADSS / RFU, GK / Fold change vs veh, GK / RFU, ZNF148 / Fold change vs veh, ZNF148 / RFU, TAF9 / Fold change vs veh, TAF9 / RFU, SLC1A5 / Fold change vs veh, SLC1A5 / RFU, SLMO2 / Fold change vs veh, SLMO2 / RFU, ABCC4 / Fold change vs veh, ABCC4 / RFU, LOC101060439 /// RAP1B / Fold change vs veh, LOC101060439 /// RAP1B / RFU, RFX7 / Fold change vs veh, RFX7 / RFU, GTPBP10 / Fold change vs veh, GTPBP10 / RFU, CNEP1R1 / Fold change vs veh, CNEP1R1 / RFU, BIVM-ERCC5 /// ERCC5 / Fold change vs veh, BIVM-ERCC5 /// ERCC5 / RFU, ILF3 / Fold change vs veh, ILF3 / RFU 11762660_at / Fold change /veh 11762660_at / RFU VCAN (11757783_s_at) / Fold change /veh VCAN (11757783_s_at) / RFU DDX43 (11728927_at) / Fold change /veh DDX43 (11728927_at) / RFU KRT8 (11758188_x_at) / Fold change /veh KRT8 (11758188_x_at) / RFU NKD1 (11759106_at) / Fold change /veh NKD1 (11759106_at) / RFU SRD5A1 (11742802_a_at) / Fold change /veh SRD5A1 (11742802_a_at) / RFU TPSAB1 /// TPSB2 (11721975_s_at) / Fold change /veh TPSAB1 /// TPSB2 (11721975_s_at) / RFU GSTM3 (11746129_a_at) / Fold change /veh GSTM3 (11746129_a_at) / RFU IL23R (11737362_x_at) / Fold change /veh IL23R (11737362_x_at) / RFU TMEM51 (11727254_a_at) / Fold change /veh TMEM51 (11727254_a_at) / RFU PIWIL2 (11732686_x_at) / Fold change /veh PIWIL2 (11732686_x_at) / RFU ORM1 (11744905_x_at) / Fold change /veh ORM1 (11744905_x_at) / RFU CCDC152 (11743942_at) / Fold change /veh CCDC152 (11743942_at) / RFU ECM1 (11717891_a_at) / Fold change /veh ECM1 (11717891_a_at) / RFU IL23R (11748794_a_at) / Fold change /veh IL23R (11748794_a_at) / RFU TNFAIP8L3 (11732012_x_at) / Fold change /veh TNFAIP8L3 (11732012_x_at) / RFU MBOAT4 (11741988_at) / Fold change /veh MBOAT4 (11741988_at) / RFU 11764193_at / Fold change /veh 11764193_at / RFU TMEM53 (11763286_at) / Fold change /veh TMEM53 (11763286_at) / RFU MAGEB2 (11727129_at) / Fold change /veh MAGEB2 (11727129_at) / RFU TMEM200A (11744735_a_at) / Fold change /veh TMEM200A (11744735_a_at) / RFU CCDC152 (11751479_a_at) / Fold change /veh CCDC152 (11751479_a_at) / RFU FAM211A (11726209_a_at) / Fold change /veh FAM211A (11726209_a_at) / RFU RGS16 (11746705_a_at) / Fold change /veh RGS16 (11746705_a_at) / RFU VCAN (11755009_s_at) / Fold change /veh VCAN (11755009_s_at) / RFU RHOB (11743442_s_at) / Fold change /veh RHOB (11743442_s_at) / RFU RGS16 (11720943_a_at) / Fold change /veh RGS16 (11720943_a_at) / RFU RGS16 (11720944_at) / Fold change /veh RGS16 (11720944_at) / RFU, VPS4B / Fold change vs veh, VPS4B / RFU, CREB1 / Fold change vs veh, CREB1 / RFU, DNAJC13 / Fold change vs veh, DNAJC13 / RFU, GNAQ / Fold change vs veh, GNAQ / RFU, CDK5R1 / Fold change vs veh, CDK5R1 / RFU, ZRANB3 / Fold change vs veh, ZRANB3 / RFU, CUL4A / Fold change vs veh, CUL4A / RFU, CCNY / Fold change vs veh, CCNY / RFU, UFL1 / Fold change vs veh, UFL1 / RFU, COG3 / Fold change vs veh, COG3 / RFU, DIAPH2 / Fold change vs veh, DIAPH2 / RFU, SKA2 / Fold change vs veh, SKA2 / RFU, AFF3 / Fold change vs veh, AFF3 / RFU, LMF1 / Fold change vs veh, LMF1 / RFU, IPO11 / Fold change vs veh, IPO11 / RFU, DFFB / Fold change vs veh, DFFB / RFU, FOXP1 / Fold change vs veh, FOXP1 / RFU, CARD8 / Fold change vs veh, CARD8 / RFU, STRN3 / Fold change vs veh, STRN3 / RFU, ADK / Fold change vs veh, ADK / RFU, RASSF2 / Fold change vs veh, RASSF2 / RFU, WIPF1 / Fold change vs veh, WIPF1 / RFU, LARP1B / Fold change vs veh, LARP1B / RFU, RASA1 / Fold change vs veh, RASA1 / RFU, RB1 / Fold change vs veh, RB1 / RFU, PPFIA1 / Fold change vs veh, PPFIA1 / RFU, MAT2A / Fold change vs veh, MAT2A / RFU, CCT5 / Fold change vs veh, CCT5 / RFU, WDR92 / Fold change vs veh, WDR92 / RFU, CUX1 / Fold change vs veh, CUX1 / RFU, TTC7A / Fold change vs veh, TTC7A / RFU, TMEM135 / Fold change vs veh, TMEM135 / RFU, DEPTOR / Fold change vs veh, DEPTOR / RFU, CPM / Fold change vs veh, CPM / RFU, DNAJB6 / Fold change vs veh, DNAJB6 / RFU, CACNA2D3 / Fold change vs veh, CACNA2D3 / RFU, DTX4 / Fold change vs veh, DTX4 / RFU, TFCP2 / Fold change vs veh, TFCP2 / RFU, GMCL1 /// GMCL1P1 / Fold change vs veh, GMCL1 /// GMCL1P1 / RFU, AEBP2 / Fold change vs veh, AEBP2 / RFU, SNHG1 /// SNORD22 /// SNORD25 /// SNORD26 /// SNORD27 /// SNORD28 /// SNORD29 /// SNORD31 / Fold change vs veh, SNHG1 /// SNORD22 /// SNORD25 /// SNORD26 /// SNORD27 /// SNORD28 /// SNORD29 /// SNORD31 / Fold change (Aza/veh), C12orf56 (ProbeSet 11735607_a_at) / Fold change (ACY-1035/veh), C12orf56 (ProbeSet 11735607_a_at) / Fold change (Aza/veh), FGFR1OP (ProbeSet 11751329_s_at) / Fold change (ACY-1035/veh), FGFR1OP (ProbeSet 11751329_s_at) / Fold change (Aza/veh), VPS36 (ProbeSet 11739960_a_at) / Fold change (ACY-1035/veh), VPS36 (ProbeSet 11739960_a_at) / RFU SYPL1 (11715823_x_at) / Fold change /veh SYPL1 (11715823_x_at) / RFU IGFBP7 (11715501_s_at) / Fold change /veh IGFBP7 (11715501_s_at) / RFU REEP3 (11722064_at) / Fold change /veh REEP3 (11722064_at) / RFU IGLL1 (11728026_x_at) / Fold change /veh IGLL1 (11728026_x_at): dose or concentration left out as unconfirmed
Conditions: MV-4-11 cells, 48 hours

With Nc1ncn([C@@H]2O[C@H](CO)[C@@H](O)[C@H]2O)c(=O)n1 [azacitidine] the “Fold change /veh ZSCAN30 (11745921_a_at)” value was 1.18.
